According to publication PMC12040169 (PLOS Biology, 2025):

Test: in vitro
Conditions: human, hela cells

Structure (SMILES) | viability at 28.5 h, 10 µM [%]
CN(C)[C@@H]1C[C@H](C2(c3ccccc3)OCCO2)CC[C@H]1N(C)C(=O)Cc1ccc(Cl)c(Cl)c1 [CBK016338] | 87.8

Same assay, conditions: human, hela cells, % viability

Structure (SMILES) | viability at 28.5 h, 10 µM [%]
Cc1ccc(-c2ccn(C(C)C(=O)N(C)C)n2)cc1 (stereo not drawn) [CBK016069] | 98.4
S=C(NCC1CCN(C(=S)Nc2cccc3ccccc23)CC1)Nc1cccc2ccccc12 [CBK016070] | 107
Cc1nnc2n1-c1ccc(Cl)cc1C(c1ccccc1)=NN2CCCC(=O)c1ccc(F)cc1 [CBK016076] | 86.6
Cc1cn(C(C)C(=O)N(C)C)nc1C1CCCCC1 (stereo not drawn) [CBK016092] | 113
ON=C1CCC(c2ccccc2)CC1 (stereo not drawn) [CBK016102] | 113
CCCN(C(C)C(=O)N(C)C)S(=O)(=O)c1ccc(Cl)cc1 (stereo not drawn) [CBK016123] | 96.8
O=C(O)c1ccc(-n2cccc2)cc1 [CBK016141] | 110
CC(Oc1cccc2ccccc12)C(=S)N(C)c1ccccc1 (stereo not drawn) [CBK016158] | 88.2
Cc1cc(Br)ccc1S(=O)(=O)N(C)c1ccc(N2CCNCC2)c2ccccc12 [CBK016170C] | 96
OCc1nc2cc3cn[nH]c3cc2[nH]1 [CBK016203] | 86.5
OC(CN[C@H]1CC[C@](O)(c2ccc(Cl)cc2)CC1)c1ccccc1 (stereo partly drawn) [CBK016206] | 98.4
COc1ccc(C23CCCN(C)C2C[C@@H](O)CC3)cc1OC (stereo partly drawn) [CBK016226C] | 94.1
CC(C)CCc1ccc(C#N)c(=O)[nH]1 [CBK016227] | 98.8
O=C(O)c1ccccc1C1SCCCS1 [CBK016303] | 91.4
S=c1[nH]nnn1-c1ccc(Cl)c(Cl)c1 [CBK016327] | 96.7
c1ccc2sc(SCCN3CCCCC3)nc2c1 [CBK016366] | 109
COc1cccc(-n2c(C)nnc2C2(OC(C)=O)CCN(CCc3ccccc3)CC2)c1 [CBK016371] | 108
O=C(C[S+]([O-])c1nc2ccccc2[nH]1)N1CCOCC1 (stereo not drawn) [CBK016397] | 98.1
O=C(O)COCc1nn(-c2ccc(Br)cc2)c2c1CCCC2 [CBK016404] | 98.6
CCCN1CCCC(c2cccc(O)c2)C1 (stereo not drawn) [CBK016405B] | 92.6
Cc1cccc(C)c1NC(=S)N1CCC2(CC1)OCCO2 [CBK016408] | 117
COc1ccc2c3c(cc(Cl)cc13)CC(N)C2 (stereo not drawn) [CBK016450C] | 84.2
Cc1nc(O)c2c3c(sc2n1)CCCC3 [CBK016462] | 83.1

Structure (SMILES) | viability at 28.5 h, 10 µM [%]
CCc1c(CC)c(OC(=O)C(N)C(C)C)c2ccccc2c1OC (stereo not drawn) [CBK016484C] | 93.4
CC(C)(C)C(=O)c1cnc2sc3ccccc3n12 [CBK016512] | 91.6
CCC1C(c2ccc(C)cc2)=CCC(C(=O)NCCCN(C)C)C1C (stereo not drawn) [CBK016514] | 79.6
COC(=O)c1cc(NC(=O)OC(C)(C)C)ccc1O [CBK016529] | 86
CC(=O)c1c(CSc2ccccc2)nn2c1CCCC2 [CBK016543] | 78.9
O=[N+]([O-])c1ccc(N2CCCCC2)s1 [CBK016566] | 104
COc1ccc2[nH]cc(CCNC3CCc4cccc(OC)c4C3)c2c1 (stereo not drawn) [CBK016569C] | 80.1
CCCN(CC1CC1)C1CCc2cccc(C(N)=O)c2C1 (stereo not drawn) [CBK016579] | 114
CCC(C)(C)NC(=NC#N)Nc1cccnc1 [CBK016580] | 85.1
CC(=O)Oc1ccc2c(=O)cc(N(C)C)oc2c1C [CBK016581] | 60.5
S=C(NC1=NCCS1)Nc1ccccc1 [CBK016591] | 95.2
CC(C)c1noc(-c2ncn3c2c(=O)n(C(C)C)c2cc(F)ccc23)n1 [CBK016659] | 102
Cc1c(C)n(C)c2nc(N3CCCC3)nc(N3CCCC3)c12 [CBK016683C] | 90.1
CCC(c1c(O)c2ccccc2oc1=O)c1cccc2ccccc12 (stereo not drawn) [CBK016684] | 102
O=c1[nH]c2cccc3c2n1C[C@H](NCCc1ccccc1)C3 [CBK016688C] | 105
O=c1oc2ccccc2c(O)c1Cc1c(O)c2ccccc2oc1=O [CBK016703G] | 74
CC(C)Nc1cccnc1N1CCN(C(=O)c2ccncc2)CC1 [CBK016714] | 79
COc1ccc2c(c1)sc1ncc(C#N)n12 [CBK016716] | 87.9
CC(C)c1c(N)nc(SCc2ccccc2)nc1Cl [CBK016721] | 123
CC(C)(C)OC(=O)N(CCCN1CCN(c2ccc(F)cc2)CC1)c1ccccc1 [CBK016723] | 89.2
CCN(CC)CCOC1CCc2ccccc2CC1 [CBK016730C] | 96.7
O=c1[nH]c2ccncc2c2ccccc12 [CBK016740C] | 92
C[C@@H]1CN(C(=O)c2cc3c(C(=O)OC(C)(C)C)ncn3c3ccc(Cl)cc23)C[C@H](C)N1 [CBK016744] | 115

Structure (SMILES) | viability at 28.5 h, 10 µM [%]
CSc1[nH]nc(N)c1-c1ccc([N+](=O)[O-])cc1 [CBK016751] | 88
CC(C)(C)c1cc(N)c(C(N)=O)s1 [CBK016752] | 91.3
c1ncn(C2CCCCC2)c1C1CCCCC1 [CBK016758] | 101
CCC(Cc1ccccc1C)c1cc(O)c(C(c2ccccc2)C2CC2)c(=O)o1 (stereo not drawn) [CBK016783] | 98.3
CC(C)Nc1cccnc1N(C)C1CCN(C(=O)c2cc(Br)c[nH]2)CC1 [CBK016797] | 105
c1nc(N2CCOCC2)c2cn[nH]c2n1 [CBK016811] | 86.3
CCCCC(Sc1nc(N)cc(Cl)n1)c1cc(C)ccn1 (stereo not drawn) [CBK016827] | 106
CC(C)(C)OC(=O)N1CCN(CCOc2ccc(NC(=O)OCc3ccccc3)cc2F)CC1 [CBK016854] | 108
CC(C)CNc1n[nH]c(=S)s1 [CBK016865] | 95.9
O=C1O[C@@H](CO)CN1c1ccc(N(Cc2ccccc2)Cc2ccccc2)c(F)c1 [CBK016873] | 103
Cc1ccc(Cl)cc1NC(=O)OCCN(C)C [CBK016906] | 98.3
NS(=O)(=O)c1ccccc1NC(=O)NC1CCCCC1 [CBK016919] | 93.4
FC(F)(F)c1cc(NCCC2CCCCN2)cc(C(F)(F)F)c1 (stereo not drawn) [CBK016963] | 88.6
O=C(Nc1ccccc1)Nc1ccc([N+](=O)[O-])cc1 [CBK016975] | 99.6
CSc1[nH]nc(-c2ccc(C(C)(C)C)cc2)c1C#N [CBK016999] | 108
CCCSc1scc2c1-c1n[nH]cc1CC2 [CBK017006] | 99.3
O=S(=O)(Nc1cccc2nsnc12)c1cccs1 [CBK017018] | 75.6
NCCSc1cc(C(F)(F)F)nc2ccccc12 [CBK017035] | 81.9
O=C(O)CC/C(=N\Nc1ccc([N+](=O)[O-])cc1)c1ccc(F)cc1 [CBK017075] | 110
CC(C)Nc1ncnc2scc(-c3cccs3)c12 [CBK017085] | 85.9
CCN(CC)CCCC(C)Nc1ccnc2cc(Cl)ccc12 (stereo not drawn) [CBK017143] | 85.6
Nc1ccc2nc(-c3ccccn3)[nH]c2c1 [CBK017167] | 100
CC(C)c1c(SCCN)[nH]c2ccccc12 [CBK017265C] | 96

Structure (SMILES) | viability at 28.5 h, 10 µM [%]
NC(=O)c1cc(C(=O)c2ccccc2F)c[nH]1 [CBK017284] | 112
CS(=O)(=O)c1nc(-c2ccccc2)ns1 [CBK017338] | 90.6
CC1=NN(c2cccc(S(=O)(=O)O)c2C(=O)Nc2ccccc2)C(=O)C1 [CBK017343] | 98.4
Nc1ncnc(Nc2cccc(C(F)(F)F)c2)n1 [CBK017403] | 82.4
CC(C)(C)NC(=O)N/N=C/c1[nH]ncc1Br [CBK017439] | 96
O=S(=O)(Nc1cccc(Cl)c1Cl)c1ccc(Cl)c(Cl)c1 [CBK017446] | 79.2
N#Cc1sc(NC(=O)c2cccc(Br)c2)nc1Cl [CBK017468] | 45.4
CCCSc1cc(=O)oc2ccccc12 [CBK017493] | 87.3
Nc1ccc2c(O)c(C(=O)NCc3ccc(Cl)cc3)c(=O)[nH]c2c1 [CBK017557] | 91.4
C[S+]([O-])CCn1c2ccccc2c2c(N3CCCC3)nc(N3CCCC3)nc21 (stereo not drawn) [CBK017586] | 91.9
O=C(NCc1ccc(Cl)cc1)c1c(O)c2cc(NS(=O)(=O)c3ccccc3)ccc2[nH]c1=O [CBK017589] | 94.4
CC(C)(C)c1ccc2c(c1)C(CCCCN1CCCC1)(c1ccccc1)C(=O)O2 (stereo not drawn) [CBK017654C] | 102
NC(=O)c1ccc2[nH]c(-c3cscn3)nc2c1 [CBK017800] | 86
COc1ccc2c(c1Br)C=C(n1ccnc1)CC2 [CBK017808] | 76.9
Oc1cccc2ccc(-n3ccnc3)nc12 [CBK017812] | 79.3
Cc1ccc(N)c(C(=O)CCC(=O)O)c1 [CBK017815C] | 92.1
COc1ccc2[nH]cc(/C=C3\C(=O)Nc4ncccc43)c2c1 [CBK017826] | 88.3
C[C@@H]1CC(=O)CCC1NC(=O)c1ccccc1 (stereo partly drawn) [CBK017832] | 88.4
CN(C)c1ccc(C(=O)N2CC(=O)Nc3ccccc32)cc1 [CBK017839] | 89.2
COC(=O)C[C@@H](C)NC(=O)[C@](OC)(c1ccccc1)C(F)(F)F [CBK017864] | 98.6
CCCN(CCC)CCc1cccc2c1CCN2C(=O)c1cc2ccccc2s1 [CBK017871C] | 93.2
COC(=O)c1ccc2cccnc2c1O [CBK017876] | 90.9
O=C(Nc1ccc(Cl)cc1)N1CCN(CCCCc2ccc(F)cc2)CC1 [CBK017951C] | 111

Same assay, conditions: human, hela cells, % viability, bulk resorufin, single well

Structure (SMILES) | viability at 28.5 h, 10 µM [%]
CCCC(=O)C1(c2ccccc2)CCN(C(=O)Nc2cccc(SC)c2)CC1 [CBK016441] | 94.6
O=C(NO)Nc1ccc(Cl)c(Cl)c1 [CBK016929] | 96.3
O=C1NC(=O)C(=Cc2ccc([N+](=O)[O-])o2)C(=O)N1 [CBK017848] | 106
